Source: patent US20220236254A1, “BITTER TASTE RECEPTOR BLOCKERS AND METHODS OF THEIR IDENTIFICATION” (Firmenich Incorporated, priority 2019, published 2022)

Columns and labels:
Assay type in all cases: cell-based
[1] = target: T1, polypeptide identified herein as SEQ ID NO: 2 (hT2R44) (Homo sapiens, UniProt P59541, F252L); assay: Bitterness antagonism: PMFs antagonizing limonin on cells expressing the receptor; details: limonin 25 μM
T1 construct: expressed in transfected cells; host or cells: cells expressing a promiscuous G protein (G16g44)
T1 sequence (P59541 1-319 F252L): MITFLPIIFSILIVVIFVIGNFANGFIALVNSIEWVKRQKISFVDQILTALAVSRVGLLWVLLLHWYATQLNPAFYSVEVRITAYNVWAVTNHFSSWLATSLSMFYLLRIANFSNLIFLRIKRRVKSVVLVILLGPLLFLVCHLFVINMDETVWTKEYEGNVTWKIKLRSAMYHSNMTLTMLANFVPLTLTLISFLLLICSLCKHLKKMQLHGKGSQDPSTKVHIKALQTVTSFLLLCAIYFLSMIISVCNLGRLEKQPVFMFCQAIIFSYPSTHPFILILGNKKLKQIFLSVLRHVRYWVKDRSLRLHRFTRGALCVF
Method: (§1) Cells expressing a promiscuous G protein (G16g44) were transfected using TransIT-293 (Mirus) with expression vectors encoding 22 functional biter receptor cDNAs, with one receptor per transfection. The cells were transfected directly in 384-well format high-density plates and incubated for 28 hours. Later, cells were loaded with the Ca-specific dye Fluo4-AM. After an incubation of 60 minutes, excess dye is washed off, and cells are stimulated with respective bitter agonists while simultaneously recording changes in intracellular fluorescence using a FLIPR instrument. Bitter agonist and responding receptors were identified and respective stable bitter receptor cell lines were then used in the same assay to perform full dose-response analysis with the respective bitter agonists.
Certain PMFs were tested for their ability to antagonize binding of limonin to cells expressing the polypeptide identified herein as SEQ ID NO: 2.

[2] = target: T2, SEQ ID NO: 1 (hT2R80) (Homo sapiens, UniProt Q9NYW2); assay: Bitter receptor identification, FLIPR calcium assay with bitter agonist; details: concentration range of 12.5 μM to 50 μM; cells expressing SEQ ID NO: 1
T2 construct: expressed in transfected cells; host or cells: cells expressing a promiscuous G protein (G16g44)
T2 sequence (Q9NYW2 1-309): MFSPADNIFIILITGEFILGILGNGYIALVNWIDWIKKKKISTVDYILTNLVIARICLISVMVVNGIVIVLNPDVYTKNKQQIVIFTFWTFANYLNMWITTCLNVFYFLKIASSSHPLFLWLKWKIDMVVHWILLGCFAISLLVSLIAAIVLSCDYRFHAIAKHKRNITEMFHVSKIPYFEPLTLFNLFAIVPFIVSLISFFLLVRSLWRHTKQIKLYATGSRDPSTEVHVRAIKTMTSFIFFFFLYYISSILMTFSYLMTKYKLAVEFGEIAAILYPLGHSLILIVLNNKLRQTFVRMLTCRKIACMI
Method: as §1, with “([…])” for “(G16g44)”, “agonists. The above protocol was carried out using limonin as a non-limiting example of a bitter agonist. […] The five expressed receptor proteins correspond to the amino acid sequences identified herein as SEQ ID NO: 1, 2, 3, 4, and 5.” for “agonists.”

[3] = target: T3, SEQ ID NO: 3 (hT2R51) (Homo sapiens, UniProt P59533, A49P/I296V); assay: as above; details: concentration range of 12.5 μM to 50 μM; cells expressing SEQ ID NO: 3
T3 construct: expressed in transfected cells; host or cells: cells expressing a promiscuous G protein (G16g44)
T3 sequence (P59533 1-333 A49P/I296V): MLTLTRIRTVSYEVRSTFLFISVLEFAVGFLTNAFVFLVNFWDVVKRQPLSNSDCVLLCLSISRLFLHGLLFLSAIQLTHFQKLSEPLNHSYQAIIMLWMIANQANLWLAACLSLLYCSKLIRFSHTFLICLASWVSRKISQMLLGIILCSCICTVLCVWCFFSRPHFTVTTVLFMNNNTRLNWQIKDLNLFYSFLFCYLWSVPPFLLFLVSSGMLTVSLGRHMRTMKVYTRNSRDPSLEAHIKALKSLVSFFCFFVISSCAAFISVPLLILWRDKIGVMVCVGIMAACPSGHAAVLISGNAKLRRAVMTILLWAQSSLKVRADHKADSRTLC
Method: as §1, with “([…])” for “(G16g44)”, “agonists. The above protocol was carried out using limonin as a non-limiting example of a bitter agonist. […] The five expressed receptor proteins correspond to the amino acid sequences identified herein as SEQ ID NO: 1, 2, 3, 4, and 5.” for “agonists.”

[4] = target: T4, SEQ ID NO: 4 (hT2R65) (Homo sapiens, UniProt P59542, V32I); assay: as above; details: concentration range of 12.5 μM to 50 μM; cells expressing SEQ ID NO: 4
T4 construct: expressed in transfected cells; host or cells: cells expressing a promiscuous G protein (G16g44)
T4 sequence (P59542 1-299 V32I): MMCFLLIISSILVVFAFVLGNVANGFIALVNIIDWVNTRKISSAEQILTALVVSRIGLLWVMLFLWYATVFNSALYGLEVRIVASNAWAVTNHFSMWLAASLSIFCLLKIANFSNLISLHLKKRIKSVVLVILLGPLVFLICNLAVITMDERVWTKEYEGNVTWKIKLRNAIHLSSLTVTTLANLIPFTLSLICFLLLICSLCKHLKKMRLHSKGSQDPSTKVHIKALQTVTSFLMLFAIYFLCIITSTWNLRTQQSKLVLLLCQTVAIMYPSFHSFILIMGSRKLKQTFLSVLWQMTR
Method: as §1, with “([…])” for “(G16g44)”, “agonists. The above protocol was carried out using limonin as a non-limiting example of a bitter agonist. […] The five expressed receptor proteins correspond to the amino acid sequences identified herein as SEQ ID NO: 1, 2, 3, 4, and 5.” for “agonists.”

[5] = target: T5, SEQ ID NO: 5 (hT2R75) (Homo sapiens, UniProt P59540); assay: as above; details: concentration range of 12.5 μM to 50 μM; cells expressing SEQ ID NO: 5
T5 construct: expressed in transfected cells; host or cells: cells expressing a promiscuous G protein (G16g44)
T5 sequence (P59540 1-309): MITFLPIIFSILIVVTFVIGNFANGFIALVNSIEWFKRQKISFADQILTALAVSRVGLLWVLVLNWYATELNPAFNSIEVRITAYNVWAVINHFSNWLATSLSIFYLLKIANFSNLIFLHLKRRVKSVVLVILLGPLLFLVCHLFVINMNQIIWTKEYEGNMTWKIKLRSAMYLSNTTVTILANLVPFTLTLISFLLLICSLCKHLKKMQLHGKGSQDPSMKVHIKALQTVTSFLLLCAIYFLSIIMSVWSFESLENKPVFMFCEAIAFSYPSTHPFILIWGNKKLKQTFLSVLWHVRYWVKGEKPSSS
Method: as §1, with “([…])” for “(G16g44)”, “agonists. The above protocol was carried out using limonin as a non-limiting example of a bitter agonist. […] The five expressed receptor proteins correspond to the amino acid sequences identified herein as SEQ ID NO: 1, 2, 3, 4, and 5.” for “agonists.”

[6] = target: T6, SEQ ID NO: 2 (hT2R44) (Homo sapiens, UniProt P59541, F252L); assay: as above; details: concentration range of 12.5 μM to 50 μM; cells expressing SEQ ID NO: 2
T6 construct: expressed in transfected cells; host or cells: cells expressing a promiscuous G protein (G16g44)
T6 sequence (P59541 1-319 F252L): T1 sequence (P59541 1-319 F252L)
Method: as §1, with “([…])” for “(G16g44)”, “agonists. The above protocol was carried out using limonin as a non-limiting example of a bitter agonist. […] The five expressed receptor proteins correspond to the amino acid sequences identified herein as SEQ ID NO: 1, 2, 3, 4, and 5.” for “agonists.”

[7] = antagonist 200 μM (no antagonist: 98)

COc1cc(-c2cc(=O)c3c(OC)c(OC)c(OC)cc3o2)ccc1O
% Limonin Activation [1, 7]: 64%

CC1(C)O[C@H]2CC(=O)OC[C@]23[C@H]2CC[C@@]4(C)[C@H](c5ccoc5)OC(=O)[C@H]5O[C@]54[C@]2(C)C(=O)C[C@@H]13 [limonin]
dose response of receptor to bitter agonist [2]: positive dose response
dose response of receptor to bitter agonist [3]: positive dose response
dose response of receptor to bitter agonist [4]: positive dose response
dose response of receptor to bitter agonist [5]: positive dose response
dose response of receptor to bitter agonist [6]: positive dose response

COc1ccc(-c2oc3c(OC)c(OC)c(OC)c(OC)c3c(=O)c2OC)cc1OC
% Limonin Activation [1, 7]: 79%

COc1ccc(-c2oc3cc(OC)c(OC)c(OC)c3c(=O)c2OC)cc1OC
% Limonin Activation ([1]; antagonist 100 μM (no antagonist: 98)): 77%

COc1ccc(-c2cc(=O)c3c(OC)c(OC)c(OC)c(OC)c3o2)cc1
% Limonin Activation ([1]; antagonist 50 μM (no antagonist: 98)): 76%

COc1ccc(-c2cc(=O)c3c(OC)c(OC)c(OC)c(OC)c3o2)cc1OC
% Limonin Activation [1, 7]: 74%

COc1ccc(-c2cc(=O)c3c(OC)c(OC)c(OC)cc3o2)cc1OC
% Limonin Activation [1, 7]: 70%
